{"source": "ChEMBL document CHEMBL5625225", "about": "“Vinylphosphonate-based cyclic dinucleotides enhance STING-mediated cancer immunotherapy” (Eur J Med Chem, 2023)", "key": {"[1]": {"molecular_target": "T1, Stimulator of interferon genes protein (Homo sapiens, UniProt Q86WV6)", "assay": "Agonist activity at STING R232 mutant (unknown origin) expressed in digitonin -permeabilized HEK293T cells preincubated for 30 mins followed by washout and measured after 5 hrs by Bright-glo luciferase assay", "assay_type": "cell-based"}, "[2]": {"molecular_target": "Stimulator of interferon genes protein (Homo sapiens, UniProt Q86WV6, G230A/R293Q/R71H)", "sequence (Q86WV6 whole entry R71H/G230A/R293Q)": "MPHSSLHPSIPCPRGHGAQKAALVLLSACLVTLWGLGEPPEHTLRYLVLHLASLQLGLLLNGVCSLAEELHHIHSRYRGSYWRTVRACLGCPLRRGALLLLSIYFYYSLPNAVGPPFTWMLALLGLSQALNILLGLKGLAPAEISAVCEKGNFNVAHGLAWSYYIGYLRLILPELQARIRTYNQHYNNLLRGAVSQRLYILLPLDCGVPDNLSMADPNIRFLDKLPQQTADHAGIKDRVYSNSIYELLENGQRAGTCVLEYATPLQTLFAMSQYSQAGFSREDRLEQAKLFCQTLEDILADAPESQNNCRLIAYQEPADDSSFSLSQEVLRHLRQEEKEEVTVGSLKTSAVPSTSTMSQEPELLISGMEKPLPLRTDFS", "assay": "Agonist activity at STING R71H/G230A/R293Q mutant (unknown origin) expressed in digitonin -permeabilized HEK293T cells preincubated for 30 mins followed by washout and measured after 5 hrs by Bright-glo luciferase assay", "assay_type": "cell-based"}, "[3]": {"assay": "Agonist activity at STING R232H mutant (unknown origin) expressed in digitonin -permeabilized HEK293T cells preincubated for 30 mins followed by washout and measured after 5 hrs by Bright-glo luciferase assay", "assay_type": "cell-based", "conditions": "Homo sapiens, HEK-293T"}, "[4]": {"molecular_target": "Stimulator of interferon genes protein (Homo sapiens, UniProt Q86WV6, G230A/R293Q)", "sequence (Q86WV6 whole entry G230A/R293Q)": "as the sequence (Q86WV6 whole entry R71H/G230A/R293Q) above, with H71R counted along it", "assay": "Agonist activity at STING G230A/R293Q mutant (unknown origin) expressed in digitonin -permeabilized HEK293T cells preincubated for 30 mins followed by washout and measured after 5 hrs by Bright-glo luciferase assay", "assay_type": "cell-based"}, "[5]": {"molecular_target": "Stimulator of interferon genes protein (Homo sapiens, UniProt Q86WV6, R293Q)", "sequence (Q86WV6 whole entry R293Q)": "as the sequence (Q86WV6 whole entry R71H/G230A/R293Q) above, with H71R, A230G counted along it", "assay": "Agonist activity at STING R293Q mutant (unknown origin) expressed in digitonin -permeabilized HEK293T cells preincubated for 30 mins followed by washout and measured after 5 hrs by Bright-glo luciferase assay", "assay_type": "cell-based"}, "[6]": {"molecular_target": "T1, Stimulator of interferon genes protein", "assay": "Agonist activity at wild type STING (unknown origin) expressed in HEK293T cells preincubated for 30 mins followed by washout and measured after 6.5 hrs by Bright-glo luciferase assay", "assay_type": "cell-based"}, "[7]": {"molecular_target": "T1, Stimulator of interferon genes protein", "assay": "Agonist activity at wild type STING (unknown origin) expressed in HEK293T cells measured after 7 hrs by Bright-glo luciferase assay", "assay_type": "cell-based"}, "[8]": {"assay": "Induction of cytokine production in human PBMC cells assessed as IFN-gamma level incubated for 60 mins followed by washout and measured after 15 hrs", "assay_type": "functional, cell-based"}, "[9]": {"assay": "Induction of cytokine production in human PBMC cells assessed as TNF-alpha level incubated for 60 mins followed by washout and measured after 15 hrs", "assay_type": "functional, cell-based"}, "[10]": {"assay": "Induction of cytokine production in human PBMC cells assessed as IFN-alpha level incubated for 60 mins followed by washout and measured after 15 hrs", "assay_type": "functional, cell-based"}, "[11]": {"test_system": "4T1", "assay": "Antitumor immunity against mouse 4T1 cells xenografted in BALB/c syngeneic mouse model assessed as reduction in tumor volume measured upto 22 days administered as IT(Intratumoral) dose", "assay_type": "functional", "conditions": "time <= 22.0 day"}, "[12]": {"assay": "Toxicity in BALB/c mouse assessed effect on body weight change at 0.67 to 6 mg/kg, IT(Intratumoral) measured upto 22 days", "assay_type": "organism-based", "conditions": "in vivo, other, 528 h, dose 0.67-6 mg/kg, time < 22 day"}, "[13]": {"assay": "Toxicity in BALB/c mouse assessed effect on animal survival at 0.67 to 6 mg/kg, IT(Intratumoral) measured upto 22 days", "assay_type": "organism-based", "conditions": "in vivo, other, 528 h, dose 0.67-6 mg/kg, time < 22 day"}, "[14]": {"assay": "Toxicity in BALB/c mouse assessed effect on drug tolerance at 0.67 to 6 mg/kg, IT(Intratumoral) measured upto 22 days", "assay_type": "organism-based", "conditions": "in vivo, other, 528 h, dose 0.67-6 mg/kg, time < 22 day"}, "[15]": {"assay": "Toxicity in BALB/c mouse assessed body weight loss at 6 mg/kg, IT(Intratumoral) measured after 7 days relative to control", "assay_type": "organism-based", "conditions": "in vivo, other, 168 h, time 7 day"}, "[16]": {"test_system": "Stimulator of interferon genes protein (Homo sapiens), Q86WV6 [UNDEFINED MUTATION]", "sequence (Q86WV6 whole entry, looked up, change not shown)": "as the sequence (Q86WV6 whole entry R71H/G230A/R293Q) above, with H71R, A230G, Q293R counted along it", "conditions": "filed as agonist", "description": "Binding affinity to STING R232 mutant (unknown origin) assessed as change in melting temperature by differential scanning fluorimetry analysis"}, "[17]": {"test_system": "Stimulator of interferon genes protein (Homo sapiens), Q86WV6 [G230A,R293Q]", "sequence (Q86WV6 whole entry G230A/R293Q)": "as the sequence (Q86WV6 whole entry R71H/G230A/R293Q) above, with H71R counted along it", "conditions": "filed as agonist", "description": "Binding affinity to STING G230A/R293Q mutant (unknown origin) assessed as change in melting temperature by differential scanning fluorimetry analysis"}, "[18]": {"assay": "Stability in human plasma assessed as half life at 5 uM measured upto 120 mins by UPLC/MS analysis", "assay_type": "ADME, cell-free"}, "[19]": {"assay": "Stability in mouse plasma assessed as half life at 5 uM measured upto 120 mins by UPLC/MS analysis", "assay_type": "ADME, cell-free"}, "[20]": {"test_system": "4T1", "assay": "Antitumor immunity against mouse 4T1 cells xenografted in BALB/c syngeneic mouse model assessed as tumor growth inhibition at 2 mg/kg, IT(Intratumoral) measured upto 22 days relative to control", "assay_type": "functional", "conditions": "4T1, 528 h, time <= 22 day, read-out: TGI"}, "[21]": {"test_system": "4T1", "assay": "Antitumor immunity against mouse 4T1 cells xenografted in BALB/c syngeneic mouse model assessed as tumor growth inhibition at 0.67 mg/kg, IT(Intratumoral) measured upto 22 days relative to control", "assay_type": "functional", "conditions": "4T1, 528 h, time <= 22 day, read-out: TGI"}, "[22]": {"assay": "Toxicity in BALB/c mouse assessed effect on body weight change at 0.22 to 2 mg/kg, IT(Intratumoral) measured upto 22 days", "assay_type": "organism-based", "conditions": "in vivo, other, 528 h, dose 0.22-2 mg/kg, time < 22 day"}, "[23]": {"assay": "Toxicity in BALB/c mouse assessed effect on animal survival at 0.22 to 2 mg/kg, IT(Intratumoral) measured upto 22 days", "assay_type": "organism-based", "conditions": "in vivo, other, 528 h, dose 0.22-2 mg/kg, time < 22 day"}, "[24]": {"assay": "Toxicity in BALB/c mouse assessed effect on drug tolerance at 0.22 to 2 mg/kg, IT(Intratumoral) measured upto 22 days", "assay_type": "organism-based", "conditions": "in vivo, other, 528 h, dose 0.22-2 mg/kg, time < 22 day"}, "[25]": {"test_system": "4T1", "assay": "Antitumor immunity against mouse 4T1 cells xenografted in BALB/c syngeneic mouse model assessed as increase in AH1positive CD8 T cell level at 2 mg/kg, IT(Intratumoral) measured upto 22 days", "assay_type": "functional, organism-based", "conditions": "time <= 22.0 day"}}, "note": "pEC50: −log10 of the molar value. Active and inactive are the calls of the source. The rule behind the calls is not given here.", "data": [{"compound": "Nc1ncnc2c1ncn2[C@@H]1O[C@@H]2/C=C\\P(=O)(O)O[C@H]3[C@@H](F)[C@H](n4cnc5c(N)ncnc54)O[C@@H]3COP(=O)(O)O[C@H]2[C@H]1F", "values": [{"measurement": "pEC50", "setting": "[1]", "result": 7.52}, {"measurement": "pEC50", "setting": "[2]", "result": 7.00}, {"measurement": "pEC50", "setting": "[3]", "result": 4.92}, {"measurement": "pEC50", "setting": "[4]", "result": 7.00}, {"measurement": "pEC50", "setting": "[5]", "result": 5.98}, {"measurement": "pEC50", "setting": "[6]", "result": 4.30}, {"measurement": "pEC50", "setting": "[7]", "result": 4.67}, {"measurement": "pEC50", "setting": "[8]; Homo sapiens, PBMC", "result": 4.44}, {"measurement": "pEC50", "setting": "[9]; Homo sapiens, PBMC", "result": 4.12}, {"measurement": "pEC50", "setting": "[10]; Homo sapiens, PBMC", "result": 3.96}, {"measurement": "Activity", "setting": "[11]", "result": "Dose-Dependent Effect"}, {"measurement": "Activity", "setting": "[12]", "result": "Non-Toxic"}, {"measurement": "Activity", "setting": "[13]", "result": "Non-Toxic"}, {"measurement": "Activity", "setting": "[14]", "result": "Non-Toxic"}, {"measurement": "Activity", "setting": "[15]", "result": 3, "unit": "%"}, {"measurement": "ΔTm", "setting": "[16]", "result": 6, "unit": "°C"}, {"measurement": "ΔTm", "setting": "[17]", "result": 11.3, "unit": "°C"}]}, {"compound": "CC(C)(C)C(=O)OCOP1(=O)/C=C/[C@H]2O[C@@H](n3cnc4c(N)ncnc43)[C@H](F)[C@@H]2OP(=O)(OCOC(=O)C(C)(C)C)OC[C@H]2O[C@@H](n3cnc4c(N)ncnc43)[C@H](F)[C@@H]2O1", "note": "(stereo in doubt; 11C)", "values": [{"measurement": "pEC50", "setting": "[6]", "result": 8.00}, {"measurement": "pEC50", "setting": "[7]", "result": 7.92}, {"measurement": "pEC50", "setting": "[8]; pbmc", "result": 7.30}, {"measurement": "pEC50", "setting": "[9]; pbmc", "result": 7.40}, {"measurement": "pEC50", "setting": "[10]; pbmc", "result": 7.22}, {"measurement": "half-life at 5 µM", "setting": "[18]", "result": 49, "unit": "min"}, {"measurement": "half-life at 5 µM", "setting": "[19]", "result": 4, "unit": "min"}]}, {"compound": "CCC(C)(C)C(=O)OCOP1(=O)/C=C/[C@H]2O[C@@H](n3cnc4c(N)ncnc43)[C@H](F)[C@@H]2OP(=O)(OCOC(=O)C(C)(C)CC)OC[C@H]2O[C@@H](n3cnc4c(N)ncnc43)[C@H](F)[C@@H]2O1", "note": "(stereo in doubt; 13C)", "values": [{"measurement": "pEC50", "setting": "[6]", "result": 7.46}, {"measurement": "pEC50", "setting": "[7]", "result": 8.15}, {"measurement": "pEC50", "setting": "[8]; Homo sapiens, PBMC", "result": 7.70}, {"measurement": "pEC50", "setting": "[9]; Homo sapiens, PBMC", "result": 6.92}, {"measurement": "pEC50", "setting": "[10]; Homo sapiens, PBMC", "result": 7.22}, {"measurement": "half-life at 5 µM", "setting": "[18]", "result": 86, "unit": "min"}, {"measurement": "half-life at 5 µM", "setting": "[19]", "result": 4, "unit": "min"}]}, {"compound": "CC1(C(=O)OCOP2(=O)/C=C/[C@H]3O[C@@H](n4cnc5c(N)ncnc54)[C@H](F)[C@@H]3OP(=O)(OCOC(=O)C3(C)CCCCC3)OC[C@H]3O[C@@H](n4cnc5c(N)ncnc54)[C@H](F)[C@@H]3O2)CCCCC1", "note": "(stereo in doubt; 14C) [listing 1 of 2 here]", "values": [{"measurement": "pEC50", "setting": "[6]", "result": 7.52}, {"measurement": "pEC50", "setting": "[7]", "result": 7.89}, {"measurement": "pEC50", "setting": "[8]; pbmc", "result": 7.15}, {"measurement": "pEC50", "setting": "[9]; pbmc", "result": 7.22}, {"measurement": "pEC50", "setting": "[10]; pbmc", "result": 6.96}, {"measurement": "half-life at 5 µM", "setting": "[18]", "result": 130, "unit": "min"}, {"measurement": "half-life at 5 µM", "setting": "[19]", "result": 21, "unit": "min"}, {"measurement": "inhibition in vivo at 2 mg/kg", "setting": "[20]", "result": 80, "unit": "%"}, {"measurement": "inhibition in vivo at 0.67 mg/kg", "setting": "[21]", "result": 70, "unit": "%"}, {"measurement": "Activity", "setting": "[22]", "result": "Non-Toxic"}, {"measurement": "Activity", "setting": "[23]", "result": "Non-Toxic"}, {"measurement": "Activity", "setting": "[24]", "result": "Non-Toxic"}]}, {"compound": "CC1(C(=O)OCOP2(=O)/C=C/[C@H]3O[C@@H](n4cnc5c(N)ncnc54)[C@H](F)[C@@H]3OP(=O)(OCOC(=O)C3(C)CCCCC3)OC[C@H]3O[C@@H](n4cnc5c(N)ncnc54)[C@H](F)[C@@H]3O2)CCCCC1", "note": "(stereo in doubt; 14C) [listing 2 of 2 here]", "values": [{"measurement": "Activity", "setting": "[11]", "result": "Dose-Dependent Effect"}, {"measurement": "Activity", "setting": "[25]", "result": "Active"}]}, {"compound": "CCCCCCCC(=O)OCOP1(=O)/C=C/[C@H]2O[C@@H](n3cnc4c(N)ncnc43)[C@H](F)[C@@H]2OP(=O)(OCOC(=O)CCCCCCC)OC[C@H]2O[C@@H](n3cnc4c(N)ncnc43)[C@H](F)[C@@H]2O1", "note": "(stereo in doubt; 15C)", "values": [{"measurement": "pEC50", "setting": "[6]", "result": 8.30}, {"measurement": "pEC50", "setting": "[7]", "result": 8.52}, {"measurement": "pEC50", "setting": "[8]; pbmc", "result": 6.77}, {"measurement": "pEC50", "setting": "[9]; pbmc", "result": 6.55}, {"measurement": "pEC50", "setting": "[10]; pbmc", "result": 6.92}, {"measurement": "half-life at 5 µM", "setting": "[18]", "result": 19, "unit": "min"}, {"measurement": "half-life at 5 µM", "setting": "[19]", "result": 3, "unit": "min"}]}]}
